Columns and labels:
Assay type in all cases: cell-based
A549 cells [1] = experiment: WST assay of cell proliferation (CCC021-TPP); conditions: Homo sapiens, 96 h; A549, 4 days
Protocol: (§1) The proliferation suppressive effect of CCC021-TPP on cells having the A14582G mtDNA mutation was evaluated by WST assay. Both the mitochondrial DNA mutated cell line A549 and a PC14 cell line having no mutation were inoculated at 1×10^3 cells/well to 96-well plates (Thermo Fisher Scientific), cultured for 24 hours, and then treated with CCC021-TPP (final concentration: 0, 1, 5, 10, 20, 25, 50, and 100 μM). The cells were further cultured for 4 days and then morphologically observed under optical microscope IX71 (OLYMPUS, Tokyo, Japan). Then, cell survival rates were calculated using Cell counting kit-8 (DOJINDO, Kumamoto, Japan) according to the instruction manual. DMSO (FUJIFILM Wako Pure Chemical Corp.) (final concentration: 1%) was added as a control to cells.
(§2) IC50 was calculated according to the following expression:
(§3) IC50=10(LOG(A/B)×(50−C)/(D−C)+LOG(B))

PC14 cells [2] = experiment: WST assay of cell proliferation (CCC021-TPP); conditions: PC14, 4 days
Protocol: as §1, §2, §3

A549 cells [3] = experiment: Long-term cell proliferation, cell numbers counted for 8 days; conditions: 20 μM
Protocol: The suppression of cell proliferation was further observed in the A549 and PC14 cells mentioned above for a long period. The observation was performed for 8 days under the culture conditions described above (both the mtDNA mutation cell line A549 and the PC14 cell line having no mutation were inoculated at 1×10^3 cells/well, cultured for 24 hours, and then treated with CCC021-TPP (final concentration: 20 μM)), and cell numbers were counted.

A549 cells [4] = experiment: SA-β-Gal staining (senescence marker β-galactosidase); conditions: 20 μM, 5 days
Protocol: In order to study whether cellular senescence was induced, the activity of a senescence marker β-galactosidase was determined with SPiDER-β-Gal (DOINDO) in the A549 cells and the PC14 cells after CCC021-TPP administration. 1000 cells were inoculated to a 35 mm dish and then cultured for 24 hours. Then, CCC021-TPP was administered (final concentration: 20 μM), and the cells were cultured for 5 days, washed twice with Hanks' balanced salt solution (HBSS) (pH 7.3), then treated with 500 μL of 4% paraformaldehyde at room temperature for 3 minutes, then washed twice with HBSS again, then treated with 500 μl of SPiDER-β-Gal Working Solution at 37° C. for 30 minutes, then washed once with HBSS, and observed under SP8 confocal microscope.

A549 cells [5] = experiment: ROS production with MitoSOX Red; conditions: 10 μM, 24 hours
Protocol: (§4) In order to confirm the production induction of reactive oxygen species (ROS) by mitophagy, the production of reactive oxygen species was fluorescently observed with MitoSOX Red (Invitrogen). 10^4 A549 or PC14 cells were inoculated, cultured for 10 hours, then treated with 10 μM CCC021-TPP for 24 hours, then washed with PBS, and treated at 37° C. for 10 minutes with MitoSOX Red dissolved in 13 μL of DMSO and diluted into 5 μM (final concentration) with PBS. The cells were washed with PBS and then observed under SP8 confocal microscope.

PC14 cells [6] = experiment: ROS production with MitoSOX Red; conditions: 10 μM, 24 hours
Protocol: as §4

A549 cells [7] = experiment: Expression of apoptosis-related factors by RT-qPCR; conditions: 5 days after treatment
Protocol: Accordingly, as for the maintenance of senescent cells by the circumvention of apoptosis as well as change in the expression of anti-apoptotic factors BCL-XL, BCL2, and survivin and an pro-apoptotic factor BAX by CCC021-TPP treatment, the cells were recovered 5 days after CCC021-TPP treatment as described above, and RNA extraction, RNA reverse-transcription, cDNA synthesis, and RT-qPCR were performed in the same manner as in Example 1 to examine the expression of apoptosis-related factors (BCL-XL, BCL2, survivin, and BAX) in the A549 cells and the PC14 cells. The primers used for the amplification of each gene are shown below. For qPCR, amplification was performed under conditions involving a holding stage of 50° C. for 2 min→95° C. for 10 min followed by 40 cycles of a cycling stage each involving 95° C. for 15 sec→60° C. for 1 min using Applied Biosystems(R) 7500 real-time PCR system, and melt curve analysis after amplification was conducted at a melt curve stage of 95° C. for 15 sec→60° C. for 1 min→95° C. for 15 sec→60° C. for 15 sec to confirm reaction specificity from the absence of primer dimer by-products or the like in PCR products.

CN(C)CCCNC(=O)CCNC(=O)c1cc(NC(=O)c2cc(NC(=O)CCNC(=O)c3nc(NC(=O)c4cc(NC(=O)c5cc(NC(=O)CCNC(=O)CCCC[P+](c6ccccc6)(c6ccccc6)c6ccccc6)cn5C)cn4C)cn3C)cn2C)cn1C [CCC021-TPP]
IC50 (A549 cells [1]): 78.9 µM | IC50 (WST assay) (PC14 cells [2]): incalculable | cell number / proliferation (A549 cells [3]): significant suppression of proliferation | activity of senescence marker β-galactosidase (A549 cells [4]): elevated activity of β-galactosidase was confirmed | ROS production (A549 cells [5]): excessive induction of ROS production in cytoplasm was observed | ROS production (PC14 cells [6]): rarely observed | expression of anti-apoptotic factor BCL-XL (A549 cells [7]): increased | expression of pro-apoptotic factor BAX (A549 cells [7]): increased expression | expression of survivin (A549 cells [7]): decreased expression

— patent US20220193241A1, “AGENT TARGETING DOUBLE-MEMBRANE ORGANELLE DNA” (CHIBA-PREFECTURE, priority 2019, published 2022)
